Reference: patent publication US12564578B2, “Collagen P4H1 inhibitor and its use” (University of Kentucky Research Foundation, priority 2019, dated 2026)
“Also recorded” adds a separate entry of the source. Like-named read-outs stand apart in the source and are kept apart here.

What was measured:
[1] = system: collagen hydroxylation in chicken tendon cells; conditions: collagen hydroxylation assay, doi: 10.1042/bj2610127, read-out: IC50 reported in previous research; cited from earlier work
[2] = Succinate-Glo Hydroxylase assay in the absence of C-P4H1 (counter test); type: biochemical; conditions: no C-P4H1 in the reaction
Protocol: (§1) Succinate-Glo™ Hydroxylase assay was ran following the protocol of Succinate-Glo™ JmjC Demethylase/Hydroxylase Assay (Promega, V7991). Briefly, following the human CP4H1 assay, 10 μL Succinate Detection Reagent I was added, including the enzymes 3-oxoacid CoA-transferase (SCOT) and succinyl CoA ligase (SCS), and acetoacetyl-CoA. See, TM488 Technical Manual and U.S. Pat. No. 9,677,117 for “Bioluminescent Succinate Detection Assay,” issued Jun. 13, 2017, assigned to Promega Corporation. Mix assay plate with a plate shaker for 30 seconds, and incubate at room temperature for 60 minutes. Add 20 μl of Succinate Detection Reagent II, including the enzyme luciferase, to each well of the assay plate to generate light from the ATP. See, Id. Mix assay plate with a plate shaker for 30 seconds, and incubate at room temperature for 10 minutes. Measure the luminescence with a plate-reading luminometer (BioTek).
To further evaluate reliability of the Succinate-Glo™ assay, varied concentration of peptide substrate GPPG (FIG. 3A) and hydroxyl donor α-KG (FIG. 3B) were tested in the hydroxylation reaction, respectively. Increased concentration of GPPG and α-KG induced luminescence assay in a dose dependent manner. DHB has been identified as a C-P4Hs' inhibitor^35. To determine whether this assay can evaluate c-P4H1 inhibitor's activity, C-P4H1 was incubated with different concentration of DHB for 30 min at 4° C., and then the hydroxylation reaction and the bioluminescence-based assay were performed. […] The IC50 was detected at around 20 μM, which is much lower than the IC50 value of 0.1 mM reported in the previous research with the collagen hydroxylation assay in the chicken tendon cells (doi: 10.1042/bj2610127); this is probably due to the sensitivity difference between two methods. In the absence of C-P4H1, DHB had little effect on the Succinate-Glo™ assay, indicating the inhibitory effect is specific on the prolyl hydroxylation reaction (FIG. 3D).

human C-P4H1 = biological target: T1, human C-P4H1 (Homo sapiens, UniProt P13674); experiment: Human C-P4H1 activity measured with Succinate-Glo Hydroxylase assay (also high-throughput screening); type: biochemical; conditions: for inhibition of C-P4H1 activity (luminescence): different concentrations, 200 nM C-P4H1
T1 construct: made in house; host or cells: HEK-293FT
T1 sequence (P13674 18-534): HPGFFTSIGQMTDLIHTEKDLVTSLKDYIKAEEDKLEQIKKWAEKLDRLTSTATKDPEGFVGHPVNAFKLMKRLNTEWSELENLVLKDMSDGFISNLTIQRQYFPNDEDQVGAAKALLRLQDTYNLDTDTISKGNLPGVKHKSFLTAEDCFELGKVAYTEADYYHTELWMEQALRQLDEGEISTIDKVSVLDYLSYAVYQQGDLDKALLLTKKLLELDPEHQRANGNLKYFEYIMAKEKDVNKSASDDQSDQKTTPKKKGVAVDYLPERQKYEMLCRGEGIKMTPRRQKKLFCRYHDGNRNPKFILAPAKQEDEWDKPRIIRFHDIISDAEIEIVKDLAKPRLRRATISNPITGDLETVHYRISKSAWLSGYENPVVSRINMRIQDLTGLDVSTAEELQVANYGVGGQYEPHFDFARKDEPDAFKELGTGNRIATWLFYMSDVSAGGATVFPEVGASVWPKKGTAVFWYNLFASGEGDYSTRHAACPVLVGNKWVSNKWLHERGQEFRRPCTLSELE
T1 sequence (P07237 18-508 partner): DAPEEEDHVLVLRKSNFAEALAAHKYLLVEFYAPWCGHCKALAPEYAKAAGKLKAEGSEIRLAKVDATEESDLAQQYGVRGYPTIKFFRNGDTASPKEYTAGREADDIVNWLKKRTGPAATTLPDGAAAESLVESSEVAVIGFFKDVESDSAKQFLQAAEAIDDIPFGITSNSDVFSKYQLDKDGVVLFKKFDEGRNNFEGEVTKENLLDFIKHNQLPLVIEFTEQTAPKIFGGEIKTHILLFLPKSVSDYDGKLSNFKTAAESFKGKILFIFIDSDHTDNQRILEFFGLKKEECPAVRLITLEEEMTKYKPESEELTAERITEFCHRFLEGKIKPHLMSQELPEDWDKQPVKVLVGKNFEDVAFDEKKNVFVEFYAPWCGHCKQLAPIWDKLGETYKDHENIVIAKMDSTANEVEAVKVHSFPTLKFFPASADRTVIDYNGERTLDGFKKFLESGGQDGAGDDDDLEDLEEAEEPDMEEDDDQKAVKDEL
Protocol: Human CP4H1 activity Assays were carried out at room temperature in 10 mM HEPES buffer containing 10 mM NaCl, pH 7.4. […] FeSO4 was prepared freshly in 10 mM HCl prior to each time use. Following 1 hour reaction, the reaction solution was subjected to Hydroxyproline Colorimetric Assay and Succinate-Glo™ Hydroxylase assay respectively.
as §1
[…] Then mix with peptide substrate (GlyProProGly(SEQ ID NO:1)OEt), 500 μM), FeSO4 (50 μM), catalase (0.1 mg/mL), ascorbate (2 mM), and α-ketoglutarate (100 μM) to react 1 hour at room temperature. The reaction volume was usually 10 μL. After the reaction, Succinate-Glo™ Hydroxylase assay was conducted in the corresponding 96-well or 384-well plate. 50 μM DHB was set as a positive control in each plate.

HS-578T cells [3] = experiment: Western blot of type I collagen in conditioned medium of treated cells; type: cell-based; conditions: 48 hours, 10 μM and 20 μM
Protocol: Chemical treated Hs578 cells were lysed in 2% sodium dodecyl sulfate (SDS) in phosphate-buffered saline (PBS) buffer containing phosphatase and protease inhibitor cocktails (EMD Millipore, 539131). Protein concentration was measured using Pierce™ BCA Protein Assay Kit (Thermo Fisher Scientific, 23227). Equal amounts of protein lysates or cell conditional medium (normalized to cell numbers) were subjected to SDS gel electrophoresis, immunoblotted with primary antibodies (Anti-Collagen I antibody, ab34710; Anti-tubulin, Cell Signaling 2148)) and DyLight 680/800-conjugated secondary antibodies (DyLight 680-conjugated goat anti-rabbit IgG secondary antibody Thermo Fisher Scientific, 35569; DyLight 800-conjugated goat anti-mouse IgG secondary antibody Thermo Fisher Scientific, SA5-35521).
To determine whether the identified potential inhibitors suppress the C-P4H1 activity in tissue culture, HS-578T cells were treated with Silodosin or Ticlopidine for 48 hours. Since collagen maturation and secretion was regulated by the C-P4H1, conditioned media were collected from control and Silodosin- or Ticlopidine-treated cells for western blot analysis.

MDA-MB-231 cells = experiment: 3D culture assay, invasive branching / invasive growth; type: cell-based; conditions: MDA-MB-231, 10 μM and 20 μM, 48 hours
Protocol: (§2) 3D laminin-rich extracellular matrix (3D lrECM) on-top cultures were prepared by trypsinization of cells from tissue culture plastic^25. Growth Factor Reduced BD Matrigel™ was plated on the bottom of the cell culture dish. MDA-MB-231 and HS-578 cells were seeded on the top of the matrigel layer, and additional medium containing 10% Matrigel was added on the top.
(§3) All the 3D culture assay images were acquired by Nikon microscope and were quantified with the Nikon analysis software. Results are reported as mean±S.E.M; the significance of difference was assessed by independent Student's t-test. P<0.05 represents statistical significance and P<0.01 represents sufficiently statistical significance. All reported P values were 2-tailed.
(§4) It has been shown that silence of P4HAs suppress invasive tumor growth in three-dimensional (3D) tissue culture model^19,25. 3D culture model has been widely used to evaluate drug effect^38. To further evaluate the inhibitory ability of these chemicals in tumor progression, triple-negative breast cancer cell lines, MDA-MB-231 cells and HS-578T cells were treated with Silodosin and Ticlopidine in 3D culture^39. […] Invasive branching structure of cancer cells in 3D culture is associated with tumor invasion and aggressive phenotypes^15, 19, 25. […]

HS-578T cells [4] = experiment: 3D culture assay, invasive branching; type: cell-based; conditions: 10 μM and 20 μM, 24 hours
Protocol: as §2, §3, §4

Row | Compound | IC50 [1] | effect on the luminescence assay in the absence of C-P4H1 [2] | IC50 (human C-P4H1; 0.1 μM WT C-P4HA1 (FIG. 3E), read-out: IC50 of wild type C-P4H1 inhibition) | IC50 (human C-P4H1; C-P4H1 200 nM, preincubated 30 min at 4° C. (FIG. 3C), read-out: IC50 of C-P4H1 inhibition) | inhibition of C-P4H1 activity (luminescence) (human C-P4H1) | protein levels of type I collagen in the conditioned media (HS-578T cells [3]) | invasive branching structures in 3D culture (MDA-MB-231 cells) | effect on the luminescence assay in the absence of C-P4H1 ([2]; listed as Silodocin) | invasive branching structures in 3D culture (HS-578T cells [4]) | kinetic property of C-P4H1 inhibition (human C-P4H1; dose curves, FIG. 4D and 4F)
1 | CCOC(=O)c1ccc(O)c(O)c1 [DHB, ethyl-3,4-dihydroxybenzoic acid] | 100 µM | little effect; also recorded: did not inhibit | ~40 µM | ~20 µM | significantly reduced luminescence values | – | – | – | – | –
2 | C[C@H](Cc1cc2c(c(C(N)=O)c1)N(CCCO)CC2)NCCOc1ccccc1OCC(F)(F)F [Silodosin] | – | little effect | – | – | inhibited C-P4H1 activity in a dose-dependent manner | reduced protein levels of type I collagen | significantly reduced invasive branching structures | did not inhibit | significantly reduced invasive branching structures | faster kinetic property compared to ticlopidine
